From paper PMC4113814, “Bioactive Cembrane Derivatives from the Indian Ocean Soft Coral, Sinularia kavarattiensis” (Marine Drugs, 2014)
“Also recorded” adds a separate entry of the source. Like-named read-outs stand apart in the source and are kept apart here.

What was measured:
CHIKV replicon = conditions: summary statement
BHK-CHIKV-NCT cells [1] = test: Cytotoxicity assay by ATP quantitation (CellTiter GLO); conditions: 100 μM, cell concentration lowered to 3000 cells/well
BHK-CHIKV-NCT cells [2] = test: Cell-IQ live cell imaging, cytotoxicity by cell classification (viable cells); conditions: 100 μM, 48 h, 3000 cells/well
primary microglial cells = test: Microglial morphology cell count (ramified vs amoeboid) in LPS-treated cultures; format: cell-based, Wistar rats; conditions: 2.5 μg/mL (7.2 μM) and 5.0 μg/mL (14.4 μM), 72 h
Method: Primary microglial cell cultures were prepared from brains of newborn Wistar rats. Ethics approval for the experiments was granted by the EBIOTEC Review Board (Valter Lombardi, Iván Carrera and Lucía Fernández-Novoa; Project Identification Code: Sinularia Project October 2013; approved 30 October 2013). The neocortex of one-day-old postnatal rats was aseptically dissected out, and the meninges and blood vessels were carefully removed. Following cutting in a medium containing 20% horse serum, the suspension was filtered through a […] and transferred as a single cell suspension to culture dishes, using 5.0 mL of medium per dish. The cultures were incubated at 37 °C in an atmosphere containing 5% CO2. The culture medium consisted of Minimum Essential Medium Eagle, supplemented with L-glutamine, amino acids, vitamins, penicillin, gentamicin, sodium bicarbonate and 20% heat-inactivated horse serum. The medium was changed twice a week. After 1 week, the concentration of horse serum was reduced to 10%. After sixteen days in culture, cells were treated with 1 μg/mL of lipopolysaccharide (LPS). […] After 72 h of incubation, cells were counted, and 2.5 mL of the supernatants were collected from each well and frozen at −40 °C for cytokine analyses. […]

cytokine release = test: Inhibition of cytokine release in primary microglial cells, whole cytokine panel (summary statements); format: cell-based, Wistar rats; conditions: Rattus norvegicus
Method: Primary microglial cell cultures were prepared from brains of newborn Wistar rats. Ethics approval for the experiments was granted by the EBIOTEC Review Board (Valter Lombardi, Iván Carrera and Lucía Fernández-Novoa; Project Identification Code: Sinularia Project October 2013; approved 30 October 2013). The neocortex of one-day-old postnatal rats was aseptically dissected out, and the meninges and blood vessels were carefully removed. Following cutting in a medium containing 20% horse serum, the suspension was filtered through a […] and transferred as a single cell suspension to culture dishes, using 5.0 mL of medium per dish. […] After 72 h of incubation, cells were counted, and 2.5 mL of the supernatants were collected from each well and frozen at −40 °C for cytokine analyses. […]
The supernatants obtained from cell cultures were analyzed for TNF-α, IL-1β, IL-4, IL-6, IL-8, IL-10 and IL-18 using commercially available ELISA kits following the manufacturers’ instructions. […] The cytokine concentration was calculated from a standard curve of the corresponding recombinant cytokine.
The cytotoxicity of the compounds was measured by the colorimetric methyl thiazol tetrazolium (MTT) assay and scored as a percentage of the absorbance reduction of treated cultures versus untreated control cultures. […] The solutions were shaken for 20 min, and the absorbance was measured at 570 nm. […]

| Compound | overall activity in the CHIKV replicon model (CHIKV replicon) | reduction of ATP level (BHK-CHIKV-NCT cells [1]) [%] | decrease in the amount of viable cells (living or dividing) (BHK-CHIKV-NCT cells [2]) [%] | effect on ramified (RM) and amoeboid (AM) microglial cell density (primary microglial cells) | IC50 (cytokine release; converted from μg/mL, range over all cytokines) [µM] | IC50 (cytokine release; range over IL-1β, IL-6, IL-8, IL-18, TNF-α, IL-4, IL-10, read-out: IC50-values for the inhibition of cytokine release, range over cytokines) [µg/mL] |
| --- | --- | --- | --- | --- | --- | --- |
| C=C(C)[C@@H]1C/C=C2\C(=O)O[C@@H](C[C@]3(C)CC(=O)[C@H](CC(=O)C1)O3)[C@@H]2O [Compound 1, 5-epi-sinuleptolide] | moderate inhibition | 39 | > 80 | – | – | – |
| C=C(C)[C@@H]1C/C=C2\C(=O)O[C@@H](C[C@]3(C)CC(=O)[C@@H](CC(=O)C1)O3)[C@@H]2O [Compound 2, sinuleptolide] | moderate inhibition | 44 | > 80 | significant RM and AM mean differences; also recorded: significantly reduce the number of activated amoeboid cells | 1.4 to 8.3 | 0.5 to 2.9 |
